Laboratory results reported in patent US20130287688A1, “NOVEL COMPOSITIONS AND USES OF ANTI-HYPERTENSION AGENTS FOR CANCER THERAPY” (XTUIT PHARMACEUTICALS, INC., priority 2010, published 2013).

What was measured:
[1] = system: L3.6 pl orthotopic pancreatic tumors; experiment: Distribution and penetration of intravenously injected 100 nm nanoparticles; type: in vivo, mice; conditions: i.v. injected 100 nm nanoparticles
Method: The inventors then assessed the effect of losartan on blood vessel perfusion and the intratumoral distribution of i.v. injected nanoparticles in mice with orthotopic pancreatic tumors (L3.6 pl).
A total volume of 10 μl at a concentration of 3.6×10^13 nanoparticles/ml was injected via the tail vein. Twenty-four hrs later 50 μl of FITC-lectin was injected to identify functional vessels. Five min after the lectin-injection tumors were resected, fixed in paraformaldehyde and embedded in OCT. Tumors were then sectioned before confocal imaging and analysis. The extent of nanosphere distribution was determined by measuring the fraction of pixels brighter than the background signal. Nanosphere penetration was determined by drawing contours around perfused vessels and recording the fraction of pixels positive for nanospheres in each contour. Contours extended out to 30 μm for each perfused vessel. Using a previously described algorithm (Tong R T, et al. (2004) Cancer Res 64:3731-3736), the inventors fit the plot of nanosphere fraction and distance away from the vessel to an exponential and obtained a relative penetration depth of nanospheres from each vessel.

[2] = system: HSTS26T tumors; experiment: IgG diffusion by fluorescence recovery after photobleaching (FRAP); type: in vivo, SCID mice
Method: FIG. 9 is a bar graph showing the changes in diffusion coefficient in HSTS26T tumors after losartan treatment. The diffusion coefficient of IgG was measured in HSTS26T tumors implanted in the dorsal window chamber of SCID mice. Treated animals received (40 mg/kg/day) losartan by i.p. injection while control animals received saline.
Based on the previous studies on the tumor interstitial matrix (Pluen A, et al. (2001) Proc Natl Acad Sci USA 98:4628-4633 and Brown E, et al. (2003) Nat Med 9:796-800), the inventors then sought to determine if a decrease in collagen content by Losartan can improve the intratumoral distribution of nanoparticles. The inventors therefore measured the intratumoral distribution of fluorescent polystyrene nanoparticles (100 nm diameter) in three different tumor types—HSTS26T, Mu89, and L3.6 pl—after an i.t. or i.v. injection. […] The inventors also determined the effects of losartan on the intratumoral distribution of oncolytic HSV.
Mice with HSTS26T tumors implanted in a dorsal skin fold chamber were treated with i.p. injections of losartan (40 mg/kg/day) for 1 week. Fluorescence recovery after photobleaching (FRAP) measurements were done with a custom built multiphoton microscope based on a previously described protocol (Chauhan V P, et al. (2009) Biophys J 97:330-336). […] Matrix pore sizes were calculated using the SFA-FRAP data, using the equation […]

[3] = system: HSTS26T tumors; experiment: Virus treatment and tumor growth delay; type: in vivo, SCID mice
Method: (§1) Each arm (control and treated) was subsequently divided into HSV treated and non-HSV treated groups. Tumors that had reached 60 mm^3 after two weeks were selected for i.t. HSV injections. Tumors were treated with 10 μl i.t. injections of either PBS or 2.5×10^5 transducing units (t.u.) of oncolytic HSV MGH2 (gift from E. Antonio Chiocca, Ohio State University, Columbus, Ohio). Two i.t. injections of oncolytic HSV separated by 24 hrs were administered. The injections were done with a Harvard Apparatus Standard Pump 22 infusion/withdraw syringe pump system (Holliston, Mass.) at a flow rate of 4 μl/min. Tumors were measured every 2 to 3 days. Tumor volume was estimated as: V=AB^2/2, where V is the tumor volume; A and B are the maximum and minimum diameters of the tumor as measured with calipers.

[4] = system: Mu89 tumors; experiment: Virus treatment and tumor growth delay; type: in vivo, SCID mice
Method: as §1

[5] = system: E0771 breast tumors; experiment: Breast tumor growth and survival studies; type: in vivo, mice
Method: Breast tumor growth and survival studies: Mice bearing orthotopic E0771 or 4T1 breast tumors were split into treatment groups, time-matched for time after implantation and size-matched for tumor volume at this time (110-111 mm^3 in E0771, in 4T1). […] The primary tumors were then measured every 2 days, beginning on day 0, using calipers. Tumor growth was quantified using the time for each to reach double its initial volume Animal survival was quantified based on time of death after initiation of treatment or time to reach excessive tumor burden (>1000 mm^3).

[6] = losartan two weeks before i.t. injection of HSV

SMILES: CCCCc1nc(Cl)c(CO)n1Cc1ccc(-c2ccccc2-c2nn[nH]n2)cc1 [losartan]
- nanoparticle content in tumors vs control [1]: two-fold increase
- diffusion coefficient of IgG ([2]; 40 mg/kg/day i.p., multiphoton FRAP): significant increase
- mean interstitial matrix pore radius ([2]; calculated from IgG diffusion data, control 9.91±0.43 nm): 11.78±0.41 nm
- tumor growth rate ([3]; losartan alone): did not affect
- mice whose tumor volume remained stable for up to 9 weeks ([3]; losartan and HSV): 50%
- tumor growth [3, 6]: significantly delayed the growth
- tumor growth rate ([4]; losartan alone): did not affect
- tumor size relative to the starting treatment size ([4]; losartan and HSV, 4 weeks after the virus injection, all tumors): 3 fold
- tumor growth [4, 6]: significantly delayed the growth
- tumor growth rate ([5]; agent given alone (losartan 40 mg/kg daily or doxorubicin 2 mg/kg every three days)): no significant effect
- median survival ([5]; combination of losartan and doxorubicin, saline alone 12 days): 23.5 days
- survival ([5]; losartan alone): did not shorten survival
- tumor growth ([5]; losartan in combination with doxorubicin): significantly delayed
